Reference: PMC10099595, “Multimodal 4-arylchromene derivatives with microtubule-destabilizing, anti-angiogenic, and MYB-inhibitory activities” (Cancer Drug Resistance, 2023)
Like-named read-outs stand apart in the source and are kept apart here.

Experiments:
518A2 melanoma cells [1] = settings: cited from earlier work
[2] = tested on: EA.hy926 endothelial hybrid cells; settings: cited from earlier work
[3] = tested on: MCF-7 breast carcinoma cells; settings: cited from earlier work
[4] = tested on: HCT-116 colon carcinoma cells; settings: cited from earlier work
[5] = tested on: HCT-116 p53-/- colon carcinoma cells; settings: cited from earlier work
U-87 glioblastoma cells [6] = settings: read-out: IC50 U87, cited from earlier work
[7] = tested on: tested cancer and hybrid cell lines; experiment: MTT assay, average over all tested cancer and hybrid cell lines; settings: for IC50: Homo sapiens; for SI (IC50 HDFa cells/IC50 tumor cell average): selectivity index, HDFa vs tumor cell average
Experimental: An 3-(4, 5-dimethylthiazol-2-yl)-2, 5-diphenyl tetrazolium bromid (MTT) assay was used for antiproliferative studies. Cancer cells (5 × 10^4 cells/mL, 100 μL/well) were placed in 96-well plates (10 × 10^4 cells/mL for HDFA and U87 cells), and the cells were incubated for 24 h at 5% CO2 and 95% humidity. Then, cells were treated with test compounds (at various concentrations) or solely with DMSO as a negative control for 72 h. Then, 12.5 μL of a 0.5% MTT solution in phosphate-buffered saline (PBS) was added to the cells, followed by incubation for 2 h at 37 °C. After centrifugation of the plates (300 × g, 5 min, 4 °C), the medium was discarded, and 25 μL of DMSO containing 10% SDS and 0.6% acetic acid was added, followed by incubation at 37 °C for at least 1 h. Formazan absorbance at λ = 570 nm was measured using a Tecan infinite F200 microplate reader and corrected for the background (λ = 630 nm). The 50% inhibitory concentration (IC50) values were calculated from dose-response curves (means ± SD, four independent experiments) compared to DMSO-treated control cells, which were set to 100%. GraphPad Prism 9 was used for curve-fitting.
The selectivity index (SI) was calculated as a measure of selectivity toward cancer cells compared to non-malignant cells.

[8] = tested on: KB-V1^Vbl cervix carcinoma cells; settings: without verapamil, cited from earlier work
[9] = tested on: HT-29 colon carcinoma cells; settings: cited from earlier work
MYB = biological target: T1, MYB (Homo sapiens, UniProt P10242, K503R/K527R); experiment: Luciferase-dependent MYB activity assay (HEK-MYB-Luc reporter cells); type: cell-based; settings: HEK-293 reporter cells, 16 h; read-out: IC50 inhibition of MYB activity
T1 construct: expressed in transfected cells; host or cells: HEK-293 (HEK-MYB-Luc reporter cell line)
Experimental: Compounds were tested using the HEK-MYB-Luc reporter cell line, which allows a doxycycline-dependent induction of MYB expression and harbors an MYB-dependent luciferase reporter plasmid, as previously described. After 16 h of substance treatment (0.0001-3 µM), luciferase activities were analyzed as described.

[10] = tested on: HeLa cervix carcinoma cells; set-up: method as in Köhler et al.[20]; settings: positive control; ref Köhler et al.[20]; cited from earlier work
zebrafish larvae = experiment: Zebrafish angiogenesis assay (SIV area); type: in vivo; settings: 48 h treatment; for effect on SIV growth (angiogenesis): zebrafish larvae 24 hpf, 50-1000 nM
Experimental: Transgenic zebrafish (Tg(fli1:EGFP, casper mutant) were bred at 28 °C.[16] After fertilization, the eggs were transferred to E3-medium (5 mm NaCl, 0.17 mm KCl, 0.33 mm CaCl, 0.33 mm MgSO4, 0.01% methylene blue, pH 7.2), followed by incubation for 24 h. The chorion was manually removed, and the larvae were treated with test compounds or solvent in six-well plates (30 fish per concentration, 5 mL/well) for 48 h. The fluorescent vasculature was documented with a Leica MZ10F and Zeiss AxioCam MRrc. To quantify the angiogenesis, the sub-intestinal vein (SIV) area was measured using ImageJ and expressed as means ± SD with the control set to 100%. The significance of SIV reduction through substance treatment was assessed using one-way analysis of variance (ANOVA), *P < 0.05; **P < 0.01; ***P < 0.001; ****P < 0.0001, with Dunnett´s multiple comparison test (GraphPad Prism 9).

518A2 melanoma cells [11] = experiment: MTT antiproliferative assay, 518A2; type: cell-based; settings: Homo sapiens, 72 h
From the text: (§1) The following cell lines were used: 518A2 melanoma (Department of Radiotherapy, Medical University of Vienna, Austria)[15], HeLa cervix carcinoma, KBV1^Vbl (ACC-149 cervix carcinoma, MCF7 [ACC-115]) breast carcinoma, U-87 glioblastoma, HT-29 (ACC-299), HCT-116 (ACC-581) and HCT-116p53-/- colon carcinoma, EA.hy926 (ATCC® CRL-2922^TM) endothelial hybrid cells, and HDFa (ATCC® PCS-201-012^TM) adult human dermal fibroblasts. […] Only mycoplasma-free cultures were used.

[12] = tested on: KB-V1^Vbl cervix carcinoma cells; experiment: MTT antiproliferative assay, KB-V1Vbl (with or without verapamil); type: cell-based, human; settings: for IC50: Homo sapiens, KB-V1/Vbl, 72 h, read-out: IC50 KB-V1^Vbl
From the text: as §1

[13] = tested on: HCT-116 colon carcinoma cells; experiment: MTT antiproliferative assay, HCT-116; type: cell-based; settings: Homo sapiens, 72 h
From the text: as §1

[14] = tested on: HDFa adult human dermal fibroblasts; experiment: MTT cytotoxicity assay, non-malignant HDFa; type: cell-based; settings: 72 h, non-malignant cells
From the text: as §1

[15] = tested on: EA.hy926 endothelial hybrid cells; experiment: MTT antiproliferative assay, EA.hy926; type: cell-based; settings: Homo sapiens, EA.hy 926, 72 h
From the text: as §1

[16] = tested on: HT-29 colon carcinoma cells; experiment: MTT antiproliferative assay, HT-29; type: cell-based; settings: Homo sapiens, 72 h
From the text: as §1

[17] = tested on: HeLa cervix carcinoma cells; experiment: MTT antiproliferative assay, HeLa; type: cell-based; settings: Homo sapiens, 72 h
From the text: as §1

[18] = tested on: HCT-116 p53-/- colon carcinoma cells; experiment: MTT antiproliferative assay, HCT-116 p53-/-; type: cell-based; settings: Homo sapiens, 72 h
From the text: as §1

U-87 glioblastoma cells [19] = experiment: MTT antiproliferative assay, U87; type: cell-based; settings: Homo sapiens, 72 h
From the text: as §1

[20] = tested on: MCF-7 breast carcinoma cells; experiment: MTT antiproliferative assay, MCF-7; type: cell-based; settings: Homo sapiens, MCF7, 72 h
From the text: as §1

518A2 melanoma cells [21] = experiment: Cell-cycle analysis (FACS, propidium iodide); type: cell-based, human; settings: 518A2 cells, 25 nM, 24 h
Experimental: 518A2 melanoma cells (10 × 10^4 cells/mL, 3 mL/well) were cultivated in six-well plates for 24 h. After the treatment with test compounds (10 and 25 nm), C-A4 (10 and 25 nm), or DMSO (vehicle) for an additional 24 h, the cells were trypsinized, centrifuged (300 × g, 5 min, 4 °C), and fixed in 70% EtOH for min. 24 h. For FACS measurement, cells were washed in PBS and stained with propidium iodide solution (50 µg/mL PI, 50 µg/mL RNase A in 0.1% sodium citrate) for 30 min at 37 °C. The DNA content of at least 10000 single cells was determined using a Beckmann Coulter Cytomics FC500 flow cytometer (λex = 488 nm, λem = 570 nm). CXP software (Beckman Coulter) was used to analyze the cells in the cell cycle phases (sub-G1, G1, S, G2/M).

[22] = tested on: microtubule cytoskeleton of 518A2 melanoma cells; experiment: Microtubule immunofluorescence staining; type: cell-based, human; settings: 518A2 cells, 100 nM
Experimental: The cells were treated with test compounds and controls (25 and 100 nm) for 0.5, 1, 3, and 6 h and washed with cytoskeletal buffer (100 nm PIPES, 3 nm MgCl2, 138 nm KCl, 2 nm EGTA, 300 nm sucrose, pH 6.8). Fixation and permeabilization were performed for 5 min with 3.7% formaldehyde and 0.2% Triton X-100 in a cytoskeletal buffer. The cells were fixed with cold EtOH for 10 s, rehydrated in PBS, and blocked with 1% bovine serum albumin in PBS for 30 min. The microtubules were stained for 1 h with primary (anti-α-tubulin, mouse monoclonal antibody) and secondary antibodies (goat anti-mouse IgG-AF-546, Invitrogen) and washed with PBS between each treatment. Nuclei were stained using DAPI (1 µg/mL in PBS) for 30 min. The coverslips were placed in Roti®-Mount FluorCare. Microtubules (λex = 488 nm, λem = 507 nm) and nuclei (λex = 358 nm, λem = 461 nm) were documented by confocal microscopy (Leica TCS SP5 confocal microscope, 630 × magnification) and edited with ImageJ.

[23] = tested on: SW620/Ad300 colorectal cancer cells; set-up: method as in PMID 9187269, PMID 34977876; settings: MDR SW620/Ad300 cells; cited from earlier work
[24] = positive control, ref Köhler et al.[20]
[25] = read-out: Average IC50 value of the tested cancer and hybrid cell lines (Ø IC50)
[26] = read-out: Average IC50 value of the tested cancer and hybrid cell lines (Ø IC50), average of all cell lines of Table 2

T1 sequence (P10242 whole entry K503R/K527R): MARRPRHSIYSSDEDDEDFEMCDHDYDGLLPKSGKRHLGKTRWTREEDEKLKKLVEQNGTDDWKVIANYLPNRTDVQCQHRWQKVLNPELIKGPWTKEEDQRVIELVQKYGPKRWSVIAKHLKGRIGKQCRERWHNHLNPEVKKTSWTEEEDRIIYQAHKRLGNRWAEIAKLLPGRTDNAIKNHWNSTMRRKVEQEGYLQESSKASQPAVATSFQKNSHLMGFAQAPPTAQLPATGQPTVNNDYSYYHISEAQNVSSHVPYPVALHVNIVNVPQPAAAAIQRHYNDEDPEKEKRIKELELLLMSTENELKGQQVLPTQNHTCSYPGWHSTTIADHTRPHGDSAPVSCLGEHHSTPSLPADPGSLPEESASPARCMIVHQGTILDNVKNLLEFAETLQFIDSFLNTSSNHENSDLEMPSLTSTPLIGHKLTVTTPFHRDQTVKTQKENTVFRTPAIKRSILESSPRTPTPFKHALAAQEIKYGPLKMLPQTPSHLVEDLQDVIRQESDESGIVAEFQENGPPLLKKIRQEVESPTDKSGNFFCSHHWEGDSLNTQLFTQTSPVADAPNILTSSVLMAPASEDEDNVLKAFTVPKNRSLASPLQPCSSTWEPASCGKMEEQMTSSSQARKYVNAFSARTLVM

IC50 ([12]; MTT, without verapamil)	melting point	SMILES	IC50 [7, 25]	IC50 (MYB)	IC50 [7, 26]	IC50 (518A2 melanoma cells [11])	IC50 [13]	IC50 [14]	IC50 [15]	IC50 [16]	IC50 [17]	IC50 [18]	IC50 (U-87 glioblastoma cells [19])	IC50 [20]	also measured
		COc1cc(C2C(C#N)=C(N)Oc3c2ccc2ccccc32)cc(OC)c1OC (stereo not drawn) [1B]	53 nM	9.07 nM											IC50 (518A2 melanoma cells [1]; [24]): 30 ± 0.1 nM; IC50 [2, 24]: 20 ± 1 nM; IC50 [3, 24]: 34 ± 2.5 nM; IC50 [4, 24]: 20 ± 1.9 nM; IC50 [5, 24]: 30 ± 2 nM; IC50 (U-87 glioblastoma cells [6]; [24]): 5 ± 0.2 nM; IC50 ([8]; ref Köhler et al.[20]): 30 ± 1 nM; IC50 [9, 24]: 300 ± 40 nM; IC50 [10]: 10 ± 1 nM
		COc1c(I)cc(C2C(C#N)=C(N)Oc3c2c(=O)oc2ccccc32)cc1I (stereo not drawn) [1C]			> 500 nM										IC50 (518A2 melanoma cells [1]; ref Köhler et al.[13]): 1500 ± 100 nM; IC50 ([2]; ref Köhler et al.[13]): 2800 ± 70 nM; IC50 ([3]; ref Köhler et al.[13]): 3400 ± 200 nM; IC50 ([4]; ref Köhler et al.[13]): 3100 ± 100 nM; IC50 ([5]; ref Köhler et al.[13]): 2900 ± 60 nM; IC50 (U-87 glioblastoma cells [6]; ref Köhler et al.[13]): 5500 ± 300 nM; IC50 ([8]; ref Köhler et al.[13]): 3700 ± 60 nM; IC50 ([9]; ref Köhler et al.[13]): 2500 ± 200 nM
6 ± 0.5 nM	224 to 225 °C	COc1ccc2c(c1)OC(N)=C(C#N)C2c1cc(Cl)c(OC)c(OC)c1 (stereo not drawn) [2A, 2-Amino-3-cyano-4-(3’-chloro-4’, 5’-dimethoxyphenyl)-7-methoxy-4H-chromene]		2.81 ± 0.3 nM	53 nM	4 ± 0.3 nM	70 ± 5 nM	11500 nM	0.4 ± 0.06 nM	300 ± 20 nM	10 ± 0.4 nM	70 ± 5 nM	20 ± 3 nM	40 ± 7 nM	effect on SIV growth (angiogenesis) (zebrafish larvae): inhibited angiogenesis to an extent comparable to the known inhibitor axitinib; SI (IC50 HDFa cells/IC50 tumor cell average) [7]: 219
		COc1ccc2c(c1)OC(N)=C(C#N)C2c1cc(Br)c(OC)c(Br)c1 (stereo not drawn) [2E, 2-Amino-3-cyano-4-(3’, 5’-dibromo-4’-methoxyphenyl)-7-methoxy-4H-chromene]	374 nM			20 ± 2 nM	20 ± 2 nM	22200 nM	20 ± 1 nM	300 ± 2 nM	30 ± 3 nM	40 ± 3 nM	20 ± 2 nM	80 ± 3 nM	SI (IC50 HDFa cells/IC50 tumor cell average) [7]: 59; IC50 [12]: 3200 ± 300 nM; fold lower IC50 values combined with verapamil ([12]; KB-V1^Vbl cells, verapamil 1 µM vs none): 320 fold; G2/M cell-cycle arrest (in words) (518A2 melanoma cells [21]): only a slight increase in G2/M phase cells
1900 ± 200 nM	184 °C	COc1ccc2c(c1)OC(N)=C(C#N)C2c1ccccc1Cl (stereo not drawn) [2H, 2-Amino-3-cyano-4-(2’-chlorophenyl)-7-methoxy-4H-chromene]			> 500 nM	2000 ± 100 nM	3700 ± 400 nM		3700 ± 300 nM	5300 ± 970 nM	1400 ± 100 nM	2800 ± 300 nM	7400 ± 200 nM	5100 ± 370 nM	
		COc1ccc(/C=C\c2cc(OC)c(OC)c(OC)c2)cc1O [C-A4, combretastatin A4, reference compound]													time to change of the microtubule structure [22]: 30 min; G2/M cell-cycle arrest (in words) (518A2 melanoma cells [21]): significant G2/M cell-cycle arrest
		CC(=O)O[C@H]1C(=O)[C@@]2(C)[C@H]([C@H](OC(=O)c3ccccc3)[C@]3(O)C[C@H](OC(=O)[C@H](O)[C@@H](NC(=O)c4ccccc4)c4ccccc4)C(C)=C1C3(C)C)[C@]1(OC(C)=O)CO[C@@H]1C[C@@H]2O [paclitaxel]													reduction of effective concentration by treatment with P-gp modulators [23]: 100 fold
		CC[C@]1(O)C[C@@H]2CN(CCc3c([nH]c4ccccc34)[C@@](C(=O)OC)(c3cc4c(cc3OC)N(C)[C@H]3[C@@](O)(C(=O)OC)[C@H](OC(C)=O)[C@]5(CC)C=CCN6CC[C@]43[C@@H]65)C2)C1 [vinblastine]													reduction of effective concentration by treatment with P-gp modulators [23]: 351 fold

SMILES	IC50 ([12]; MTT, without verapamil)	melting point	IC50 [7, 25]	IC50 (MYB)	IC50 [7, 26]	IC50 (518A2 melanoma cells [11])	IC50 [13]	IC50 [14]	IC50 [15]	IC50 [16]	IC50 [17]	IC50 [18]	IC50 (U-87 glioblastoma cells [19])	IC50 [20]	also measured
COc1ccc2c(c1)OC(N)=C(C#N)C2c1cc(I)c(OC)c(I)c1 (stereo not drawn) [2F, 2-Amino-3-cyano-4-(3,5-diiodo-4-methoxyphenyl)-7-methoxy-4H-chromene]	70 ± 7 nM			2.31 ± 0.4 nM	43 nM	20 ± 0.4 nM	30 ± 5 nM	> 50000 nM	20 ± 2 nM	60 ± 1 nM	30 ± 3 nM		50 ± 10 nM	80 ± 4 nM	effect on SIV growth (angiogenesis) (zebrafish larvae): no significant change in blood vessel growth; concentration above which toxic effect occurs (zebrafish larvae; zebrafish larvae): above 250 nM; time to change/breakdown of the microtubule cytoskeleton [22]: 1 h; cells arrested before or during mitosis (G2/M) (518A2 melanoma cells [21]): about 74%
C#CCOc1ccc2c(c1)OC(N)=C(C#N)C2c1cc(Br)c(OC)c(OC)c1 (stereo not drawn) [compound 3, 2-Amino-3-cyano-4-(3’-bromo-4’, 5’-dimethoxyphenyl)-7-propargyloxy-4H-chromene]		206 to 207 °C	321 nM			60 ± 3 nM	300 ± 10 nM		80 ± 2 nM	2100 ± 300 nM	40 ± 2 nM	90 ± 7 nM	90 ± 3 nM	70 ± 4 nM	IC50 [12]: 80 ± 3 nM
